Here are results for 30 compounds from ChEMBL document CHEMBL1144409, “Synthesis of new quinoxaline-2-carboxylate 1,4-dioxide derivatives as anti-Mycobacterium tuberculosis agents” (J Med Chem, 2005).

Converted amounts (≈) assume the structure as drawn.

The test system of data set [1] is Mycobacterium tuberculosis. The experiment in a line: In vitro ratio of EC90 and MIC value of the compound was determined. Type of data set: functional.
For data set [2], the system named is Mycobacterium tuberculosis. The experiment in a line: In vitro effective concentration of the compound causing 90%reduction in residualmycobacterium tuberculosis growth after 7 days compared to untreated control. Format: functional. To be noted: 168 h.
In data set [3] the test system is Mycobacterium tuberculosis. The experiment in a line: In vitro effective concentration of the compound causing 99%reduction in residualmycobacterium tuberculosis growth after 7 days compared to untreated control. Format: functional. To be noted: 168 h.
The test system of data set [4] is Mycobacterium tuberculosis. The experiment in a line: In vitro actual minimum inhibitory concentration value of the compound was determined against Mycobacterium tuberculosis. Type of data set: functional.
Data set [5] is described as follows: Selectivity index (ratio of IC50 and MIC) value was determined. The settings on record: cercopithecidae.
A short description of data set [6]: Compound was tested for cytotoxicity in Vero cells. Format: cell-based. To be noted: Chlorocebus sabaeus.
In data set [7] the test system is Mycobacterium tuberculosis. The experiment in a line: In vitro minimum inhibitory concentration value against Mycobacterium tuberculosis H37Rv strain in alamar assay. Type of data set: functional.
Data set [8] concerns Mycobacterium tuberculosis. The experiment in a line: In vitro minimum inhibitory concentration value against Mycobacterium tuberculosis H37Rv strain in bactec assay. Format: functional.
In data set [9] the test system is Mycobacterium tuberculosis. The experiment in a line: In vitro minimum inhibitory concentration value against Mycobacterium tuberculosis erdman strain in alamar assay. Format: functional.
For data set [10], the system named is Mycobacterium tuberculosis. The experiment in a line: In vitro actual minimum inhibitory concentration value against Mycobacterium tuberculosis. Format: functional.
Data set [11] in a line: Compound was tested for cytotoxicity in Vero cells; Insoluble. Type of data set: cell-based, Chlorocebus sabaeus.
In data set [12] the test system is Mycobacterium tuberculosis. The experiment in a line: In vitro actual minimum inhibitory concentration value of the compound was determined against Mycobacterium tuberculosis H37Rv strain; Range is 0.015-0.125. Format: functional.

One may read the EC90 as the concentration needed for an effect of 90%. Higher therefore signals a need for much substance. One may read the EC99 as the concentration at which the effect reaches the 99% level. What is called MIC is the smallest concentration in the dilution series that meets the test's criterion for growth inhibition. A higher MIC goes with weaker potency. Broadly, the IC50 is the midpoint of a concentration-inhibition curve.

For the compound `CCc1c(C(=O)OC)[n+]([O-])c2ccccc2[n+]1[O-]`, the Ratio in data set [1] stood at 0.56. In data set [2], this compound had a 90% effect concentration (EC90) of 0.88 µg/mL (≈ 3.54 µM). In [3], the EC99 was determined as 3.32 µg/mL. The compound also gave an MIC in [4] of 1.56 µg/mL (≈ 6.28 µM). Moreover, the SI in [5] came out at 30.1. Further, the half-inhibitory concentration (IC50) in data set [6] worked out at 47 µg/mL (≈ 189 µM).
`COC(=O)c1c(Cc2ccccc2)[n+]([O-])c2ccc(OC)cc2[n+]1[O-]`: the MIC in [4] came out at 0.78 µg/mL (≈ 2.29 µM). Further, the SI in [5] was more than 80.1. The same compound had an IC50 in data set [6] of more than 62.5 µg/mL.
Turning to `COC(=O)c1c(Cc2ccccc2)[n+]([O-])c2ccc(Cl)cc2[n+]1[O-]`, the Ratio in data set [1] turned out to be 0.01. The compound further showed an EC90 in data set [2] of 0.0005 µg/mL (≈ 0.00145 µM). The compound further came in with an EC99 in data set [3] of 0.08 µg/mL. Further, 0.1 µg/mL (≈ 0.29 µM) was the least that counted as inhibitory in data set [4] (MIC). Also, the SI in [5] came to 76. This compound also returned a half-inhibitory concentration (IC50) in data set [6] of 7.6 µg/mL (≈ 22 µM).
For `COC(=O)c1c(C(C)(C)C)[n+]([O-])c2ccc(Cl)cc2[n+]1[O-]`, the MIC in data set [4] is more than 6.25 µg/mL.
Still for that read-out and setting: as for `COC(=O)c1c(Cc2ccccc2)[n+]([O-])c2cc(F)c(F)cc2[n+]1[O-]`, the figure is more than 6.25 µg/mL.
For `COC(=O)c1c(C)[n+]([O-])c2ccc(OC)cc2[n+]1[O-]`, the MIC in data set [4] was found to be 1.56 µg/mL (≈ 5.9 µM). In [5], the SI came out at 33.7. The compound further had an IC50 in data set [6] of 52.6 µg/mL (≈ 199 µM).
In data set [4], `CCOC(=O)COC(=O)c1c(CC)[n+]([O-])c2cc(Cl)c(Cl)cc2[n+]1[O-]` registered a minimal inhibitory concentration (MIC) of 0.2 µg/mL (≈ 0.514 µM). In addition, in [5], the SI stood at 6.1. In data set [6], this compound displayed a half-inhibitory concentration (IC50) of 1.22 µg/mL (≈ 3.13 µM).
The matching figures for `CCc1c(C(=O)OC)[n+]([O-])c2cc(OC)ccc2[n+]1[O-]`: 6.25 µg/mL (≈ 22.5 µM), 6.4 and 39.9 µg/mL (≈ 144 µM).
Compound `COC(=O)c1c(C)[n+]([O-])c2cc(F)c(F)cc2[n+]1[O-]` returned an MIC in [4] of 0.39 µg/mL (≈ 1.44 µM). Also, the SI in data set [5] came out at 3.8. Further, the IC50 in data set [6] came out at 1.48 µg/mL (≈ 5.48 µM).
The compound `COC(=O)c1c(C(C)(C)C)[n+]([O-])c2cc(C)c(C)cc2[n+]1[O-]` returned an MIC in data set [4] of more than 6.25 µg/mL.
For the compound `COC(=O)c1c(Cc2ccccc2)[n+]([O-])c2ccccc2[n+]1[O-]`, the Ratio in data set [1] is reported as 1.5. Also, in [2], the 90% effect concentration (EC90) was 0.15 µg/mL (≈ 0.483 µM). The EC99 in [3] is more than 2 µg/mL. This compound showed a minimum inhibitory concentration (MIC) in data set [4] of 0.1 µg/mL (≈ 0.322 µM). Also, in data set [5], the SI turned out to be 470. This compound also gave an IC50 in data set [6] of 47 µg/mL (≈ 151 µM).
Turning to `COCCc1c(C(=O)OC)[n+]([O-])c2cc(Cl)c(Cl)cc2[n+]1[O-]`, in [1], the Ratio is reported as more than 4. In data set [2], this compound registered a concentration for an effect of 90% (EC90) of more than 1.56 µg/mL. The 99% effect concentration (EC99) in [3] was more than 1.56 µg/mL. The compound also displayed an MIC in [4] of 0.39 µg/mL (≈ 1.12 µM). In addition, the SI in [5] turned out to be 11.5. Besides, the midpoint of inhibition in data set [6], the IC50, lay at 4.5 µg/mL (≈ 13 µM).
The compound `CCOC(=O)COC(=O)c1c(CC)[n+]([O-])c2ccc(Cl)cc2[n+]1[O-]` had an MIC in data set [4] of 1.56 µg/mL (≈ 4.4 µM). In data set [5], the SI came out at 1.2. The IC50 in data set [6] amounted to 1.89 µg/mL (≈ 5.33 µM).
Turning to `CCc1c(C(=O)OC)[n+]([O-])c2cc(C)c(C)cc2[n+]1[O-]`, the MIC in [7] was found to be 0.39 µg/mL (≈ 1.41 µM); in data set [8], 0.2 µg/mL (≈ 0.724 µM); in data set [9] it was 0.39 µg/mL (≈ 1.41 µM); in [4], 6.25 µg/mL (≈ 22.6 µM). The SI in [5] was more than 10. The compound also displayed a half-inhibitory concentration (IC50) in data set [6] of more than 62.5 µg/mL.
In turn, `C=CCc1c(C(=O)OC)[n+]([O-])c2cc(C)c(C)cc2[n+]1[O-]` gave a minimal inhibitory concentration (MIC) in [4] of more than 6.25 µg/mL.
As to `C=CCc1c(C(=O)OC)[n+]([O-])c2cc(Cl)c(Cl)cc2[n+]1[O-]`, inhibition of growth in [4] (MIC) required 6.25 µg/mL (≈ 19 µM). Also, the SI in data set [5] worked out at 0.93. Further, half-maximal inhibition in data set [6] (IC50) was put at 5.8 µg/mL (≈ 17.6 µM).
On to `COC(=O)c1c(Cc2ccccc2)[n+]([O-])c2cc(Cl)c(Cl)cc2[n+]1[O-]`, for which the MIC in data set [7] is not above 3.13 µg/mL; in [8] it was 6.25 µg/mL (≈ 16.5 µM); in [9], not above 3.13 µg/mL; in [10], 6.25 µg/mL (≈ 16.5 µM).
Take `COC(=O)c1c(C)[n+]([O-])c2cc(C)c(C)cc2[n+]1[O-]`: in [1], the Ratio is on record as 0.52. The same compound showed a concentration for an effect of 90% (EC90) in [2] of 1.64 µg/mL (≈ 6.25 µM). Besides, the EC99 in data set [3] was determined as 6.15 µg/mL. Further, the lowest concentration to inhibit growth in [4] (MIC) was 3.13 µg/mL (≈ 11.9 µM). Besides, in [5], the SI was more than 20. In [6], this compound displayed an IC50 of more than 62.5 µg/mL.
For the compound `COC(=O)c1c(C)[n+]([O-])c2ccc(C)cc2[n+]1[O-]`, the Ratio in [1] is reported as 1.24. This compound also yielded an EC90 in data set [2] of 1.94 µg/mL (≈ 7.82 µM). The compound further registered a 99% effect concentration (EC99) in data set [3] of 5.83 µg/mL. Further, 1.56 µg/mL (≈ 6.28 µM) was the least that counted as inhibitory in [4] (MIC). Also, the SI in [5] was more than 40.1. Besides, in data set [6], the IC50 is more than 62.5 µg/mL.
Regarding `COC(=O)c1c(C(C)(C)C)[n+]([O-])c2ccccc2[n+]1[O-]`, the minimum inhibitory concentration (MIC) in data set [4] is more than 6.25 µg/mL.
Regarding `COC(=O)c1c(C)[n+]([O-])c2cc(Cl)c(Cl)cc2[n+]1[O-]`, the minimum inhibitory concentration (MIC) in data set [4] came to 0.2 µg/mL (≈ 0.66 µM). The SI in data set [5] turned out to be 8.4. In addition, it took 1.68 µg/mL (≈ 5.54 µM) to reach half-maximal inhibition in data set [6] (IC50).
For `CCc1c(C(=O)OC)[n+]([O-])c2cc(C)ccc2[n+]1[O-]`, it took 1.56 µg/mL (≈ 5.95 µM) to inhibit growth in [4] (MIC). Moreover, the SI in data set [5] is more than 40.1. In data set [6], this compound yielded an IC50 of more than 62.5 µg/mL.
In data set [4], `COC(=O)c1c(Cc2ccccc2)[n+]([O-])c2cc(C)c(C)cc2[n+]1[O-]` yielded a minimum inhibitory concentration (MIC) of 3.13 µg/mL (≈ 9.25 µM). Also, the IC50 result in data set [11] is “Insoluble”.
In [4], `COC(=O)c1c(C(C)(C)C)[n+]([O-])c2cc(Cl)c(Cl)cc2[n+]1[O-]` showed an MIC of more than 6.25 µg/mL.
In data set [4], `CCc1c(C(=O)OC)[n+]([O-])c2cc(F)c(F)cc2[n+]1[O-]` gave a minimum inhibitory concentration (MIC) of 1.56 µg/mL (≈ 5.49 µM). Moreover, the SI in [5] was 0.77. The concentration for half-maximal inhibition (IC50) in data set [6] came to 1.2 µg/mL (≈ 4.22 µM).
`CO[C@H]1/C=C/O[C@@]2(C)Oc3c(C)c(O)c4c(O)c(c(/C=N/N5CCN(C)CC5)c(O)c4c3C2=O)NC(=O)/C(C)=C\C=C\[C@H](C)[C@H](O)[C@@H](C)[C@@H](O)[C@@H](C)[C@H](OC(C)=O)[C@@H]1C` [RIFAMPIN] yielded a minimal inhibitory concentration (MIC) in data set [12] of 0.125 µg/mL (≈ 0.152 µM).
Compound `COC(=O)c1c(C)[n+]([O-])c2ccccc2[n+]1[O-]` displayed an MIC in data set [4] of 1.56 µg/mL (≈ 6.66 µM). Also, in [5], the SI was more than 6.41. The compound also yielded a half-inhibitory concentration (IC50) in data set [6] of more than 10 µg/mL.
For `COC(=O)c1c(Cc2ccccc2)[n+]([O-])c2ccc(C)cc2[n+]1[O-]`, the Ratio in [1] was found to be 2.9. The compound also came in with an EC90 in data set [2] of 1.13 µg/mL (≈ 3.48 µM). Further, the EC99 in [3] worked out at 3.79 µg/mL. In addition, the MIC in [4] was found to be 0.39 µg/mL (≈ 1.2 µM). Moreover, the SI in [5] is 144. In data set [6], the IC50 came out at 56 µg/mL (≈ 173 µM).
Regarding `CCc1c(C(=O)OC)[n+]([O-])c2cc(Cl)ccc2[n+]1[O-]`, the Ratio in data set [1] is recorded as 2.3. In data set [2], the EC90 was 0.46 µg/mL (≈ 1.63 µM). This compound showed an EC99 in data set [3] of 1.14 µg/mL. This compound also showed a minimal inhibitory concentration (MIC) in data set [4] of 0.2 µg/mL (≈ 0.708 µM). The SI in data set [5] was more than 50. In [6], the IC50 was more than 10 µg/mL.
Regarding `CCc1c(C(=O)OC)[n+]([O-])c2cc(Cl)c(Cl)cc2[n+]1[O-]`, the Ratio in data set [1] is more than 3.15. Besides, the concentration for an effect of 90% (EC90) in data set [2] was 0.63 µg/mL (≈ 1.99 µM). Also, the 99% effect concentration (EC99) in data set [3] amounted to 5.99 µg/mL. Further, the MIC in [4] was less than 0.2 µg/mL. Besides, the SI in data set [5] was more than 20. The compound also gave an IC50 in data set [6] of 4 µg/mL (≈ 12.6 µM).
